# How the values were obtained:
# in vivo = experiment: in vivo; parameters: species or system Crab-eating macaques (Macaca fascicularis); conditions: male, cynomolgus monkey, po
# Protocol: Crab-eating macaques were used as test animal, the LC-MS/MS was used to determinate the drug concentration at different times in the plasma of crab-eating macaques, who had been administered with compound 1 via gavage (PO). The pharmacokinetic behaviors of compounds of present disclosure in crab-eating macaques were studied and their pharmacokinetic characteristics were evaluated.
# Crab-eating macaques (Macaca fascicularis), common grade, male, approximately 2.5-4 years old, 2-5 kg weight, 3 in each group.
# Compound 1 and a solid substrate (hydroxypropyl methylcellulose acetate succinate) are dissolved in an organic solvent, and the solvent was removed by heating evaporation, or removed by a spray dryer to obtain compound 1 loaded on the solid substrate.
# Compound 1 loaded on the solid substrate, which was obtained according to the above steps, was slowly added to a suitable container with approximately 80% final volume of vehicle while stirring. Stirred until it is visually uniform, and if necessary, the formulation shall be subjected to ultrasonic treatment. Vehicle was added to give the desired concentration. The obtained formulation shall be consecutively stirred until a visually uniform formulation was obtained, and if necessary, the formulation shall be subjected to ultrasonic treatment. The administration concentration with 20 mg/mL API concentration was prepared, and the preparation method for above vehicle was: approximately 30% total volume of purified water was added to an suitable container, and heated up to approximately 80° C.-90° C., the required volume of Tween 80 was added slowly to the container, while stirred until visually uniform. Purified water was added to the final volume. Stirred until a visually uniform solution was obtained.
# Crab-eating macaques were fast overnight and given free access to water. […] Feeding was resumed 2 hours after administration.
# For crab-eating macaques administered by gavage, 20 μL blood were collected from the veins in hind limb before administration and 0.25, 0.5, 1, 2, 4, 8, 24, 48, 72 and 96 hours after administration, respectively, and placed in EDTA-K2 anticoagulant blood collection tubes, and then the blood would be placed on ice until centrifuged to obtain plasma samples. The plasma samples were centrifuged at 4° C. (3500 rpm, 10 min), and after separation, the plasma samples were transferred to EP tubes and stored at −80° C. for detection.
# The level of tested compounds in the plasma of crab eating macaques, who had been orally administrated with different concentrations of drug were determinated: 10 μL macaque blood at each time point after administration was taken, 100 μL methanol containing an internal standard (100 ng/mL) was added, vortex mixed for 1 minute, centrifuged at 4° C. (12000 rmp, 5 minutes), and 1 μL supernatant was taken from the plasma samples for LC-MS/MS analysis.
# HIV-1 pseudovirus = HIV-1 pseudovirus infection test (antiviral activity, luciferase); format: cell-based; conditions: Human immunodeficiency virus 1, HEK-293T, 72 h
# Protocol: (§1) • Virus: The HIV-1 pseudovirus used in this experiment was a replication deficient virus, which is constructed by WuXi AppTec. • HEK 293T cell line was purchased from ATCC, and Item No. is CRL-11268. Cells were cultured in DMEM medium with 10% fetal bovine serum and 1% double antibody. • Reagents
# (§2) On the first day, HEK 293T cells were inoculated into a 96 well test plate at the density of 55000 cells per well and […] per well, and incubated overnight in a 5% CO2 and 37° C. incubator.
# (§3) On the second day, the tested compounds (compounds provided in the example of the present invention) and the control compounds were diluted 4-fold with cell culture medium for a total of 8 concentration points, and 50 μL diluted compounds were added to each well, and each well was performed duplicate.
# Subsequently, the HIV-1 pseudovirus was diluted to 100 TCID50/50 μL with cell culture medium, and 50 μL diluted virus was added to each well.
# (§4) Cell Control (cells, no compound treatment or virus infection) and virus control (cells infected with virus, no compound treatment) were set up. The final initial test concentration of the tested compounds and control compounds was 1000 nM (Table 1), and the amount of virus infection was 100 TCID50 per well. The total volume of cell culture medium was 200 μL per well, and the final concentration of DMSO in the culture medium was 0.5%.
# (§5) The cells were cultured in a 5% CO2 and 37° C. incubator for additional 3 days.
# On the fifth day, in the antiviral activity test plates, 100 μL cell supernatant was sucked away from each well, 100 μL 2X luciferase reporter gene assay reagent Britellite plus was added in dark. The luciferase activity in each well of the test plates was detected by Envision. The data was used for sample antiviral activity analysis.
# (§6) Dose-response curve was drawn through GraphPad Prism software. The calculation equations for antiviral activity (% Inhibition) and cell viability (% cell viability) were as follow:
# (§7) The values of EC50 and CC50 were analyzed by GraphPad Prism (version 5) software, and nonlinear fitting analysis was used for inhibitory activity and cell viability of the compounds, and the fitting method was “log (inhibitor) vs. response—Variable slope”.
# (§8) 3. The HIV-1 pseudovirus experiment was applied to determinate the in vitro antiviral activity and cytotoxicity of the tested compound on HEK 293T cells, and the experimental results were shown in the table below.
# [1] = Cytotoxicity test (cell viability, CellTier Glo); format: cell-based; conditions: human
# Protocol: as §1, §2, §3, §4, §5
# On the fifth day, in the cytotoxicity test plates, 100 μL cell supernatant were sucked from each well, 100 μL cell viability assay reagent CellTier Gloin was added in dark. Cell viability in each well was detected by BioTek enzyme-linked immunosorbent assay reader, and the data was used for sample cytotoxicity analysis.
# as §6, §7, §8
# HIV-1 integrase = HIV-1 integrase (Human immunodeficiency virus type 1 group M subtype B, UniProt P04585); experiment: Integrase activity test (HIV-1 Integrase Assay Kit EZ-1700)
# Protocol: A non-radioactive assay method, an integrase assay kit, was used to measure integrase activity quantitatively.
# Each component was prepared according to the instructions of the kit; preparation of test sample, 5 mM DMSO solution was prepared for backup, working solution was prepared according to the initial final concentration determined at the time of method establishment, with a 4-fold gradient dilution and 10 concentrations.
# • (1) The working solution of sample was prepared according to the initial concentration determinated during the methodology establishment process; • (2) Reagents were prepared according to the methods provided in the kit; • (3) DS DNA coating—blocking—addition of integrase solution—addition of sample—addition of TS DNA—addition of HRP antibody-addition of TMB peroxidase substrate—TMB termination reaction-detection of light absorption value at 450 nm.
# The software Graphpad Prism 8.0 was applied and the calculation equation of Log (inhibitor) vs. response variable slope was used to fit the IC50 curve.
# [2] = Oil-water partition coefficient (n-octanol / pH 7.4 phosphate buffer); format: physicochemical; conditions: n-octanol / pH 7.4 phosphate buffer, pH 7.4; read-out: Log D (pH 7.4)
# Protocol: • a) To a 5 mL glass bottle was added 1 mL n-octanol and 1 mL pH 7.4 phosphate buffer, respectively. • b) The compound was added to a DMSO solution to prepare a compound stock solution with a concentration of 10 mM, and then 20 μL compound stock solution was added to the mixture solution of n-octanol and phosphate buffer. • c) Shaken at room temperature for 1 hour at a rate of 300/minute. • d) Kept for 30 minutes, and after the solution was completely layered, the upper and lower layers of the solution were taken separately to a 96 well deep well plate, and LC-MS/MS was used for detection via injection. • e) The aliquots of 1-octanol and aqueous solution were diluted consecutively with DMSO to obtain the final sample for LC-MS/MS analysis. Three consecutive dilutions were carried on every 1-octanol phase with covering a concentration range of 2500 fold. Every final aqueous phase was diluted consecutively twice with covering a concentration range of 100 fold. The MS peak areas of these solutions were used to generate log (peak area) based on the log (relative concentration) calibration line.
# [formula] • Coct=sample concentration in n-octanol • Caq=sample concentration in pH 7.4 phosphate buffer
smiles,measurement,setting,value
C[C@H]1N2C(=O)c3c(O)c(=O)c(C(=O)NCc4ccc(F)cc4F)cn3C[C@@H]2OCC12CC2 [Compound 1],AUC(0-inf),in vivo; 30 mg/kg,23100 ± 3840 ng·h/mL
same,AUC(0-t),in vivo; 30 mg/kg,22900 ± 3810 ng·h/mL
same,Cmax,in vivo; 30 mg/kg,1800 ± 534 ng/mL
same,MRT,in vivo; 30 mg/kg,14.1 ± 2.68 h
same,Tmax,in vivo; 30 mg/kg,4 h
same,half-life,in vivo; 30 mg/kg,15.7 ± 5.49 h
same,AUC(0-inf),in vivo; 100 mg/kg,164000 ng·h/mL
same,AUC(0-t),in vivo; 100 mg/kg,140000 ± 44200 ng·h/mL
same,Cmax,in vivo; 100 mg/kg,4040 ± 871 ng/mL
same,MRT,in vivo; 100 mg/kg,26.9 h
same,Tmax,in vivo; 100 mg/kg,18.7 ± 25.4 h
same,half-life,in vivo; 100 mg/kg,19.8 ± 4.78 h
same,EC50,HIV-1 pseudovirus,1.08 nM
same,CC50 at 3 days,[1],> 1000 nM
same,IC50,HIV-1 integrase,9.19 nM
same,logD,[2],2.2
